Legend:
Kv12.1 (Elk1) [1] = target: T1, Kv12.1 (Elk1) (Homo sapiens, UniProt Q96L42); assay: whole-cell patch clamp; type: cell-based; conditions: weak inhibitor; 100 mM; n = 9; CHO cells, room temperature
T1 construct: gene KCNH8; full-length channel from pcDNA3.1-IRES-eGFP, transient expression in CHO dhFR- cells
T1 sequence (Q96L42 1-1107): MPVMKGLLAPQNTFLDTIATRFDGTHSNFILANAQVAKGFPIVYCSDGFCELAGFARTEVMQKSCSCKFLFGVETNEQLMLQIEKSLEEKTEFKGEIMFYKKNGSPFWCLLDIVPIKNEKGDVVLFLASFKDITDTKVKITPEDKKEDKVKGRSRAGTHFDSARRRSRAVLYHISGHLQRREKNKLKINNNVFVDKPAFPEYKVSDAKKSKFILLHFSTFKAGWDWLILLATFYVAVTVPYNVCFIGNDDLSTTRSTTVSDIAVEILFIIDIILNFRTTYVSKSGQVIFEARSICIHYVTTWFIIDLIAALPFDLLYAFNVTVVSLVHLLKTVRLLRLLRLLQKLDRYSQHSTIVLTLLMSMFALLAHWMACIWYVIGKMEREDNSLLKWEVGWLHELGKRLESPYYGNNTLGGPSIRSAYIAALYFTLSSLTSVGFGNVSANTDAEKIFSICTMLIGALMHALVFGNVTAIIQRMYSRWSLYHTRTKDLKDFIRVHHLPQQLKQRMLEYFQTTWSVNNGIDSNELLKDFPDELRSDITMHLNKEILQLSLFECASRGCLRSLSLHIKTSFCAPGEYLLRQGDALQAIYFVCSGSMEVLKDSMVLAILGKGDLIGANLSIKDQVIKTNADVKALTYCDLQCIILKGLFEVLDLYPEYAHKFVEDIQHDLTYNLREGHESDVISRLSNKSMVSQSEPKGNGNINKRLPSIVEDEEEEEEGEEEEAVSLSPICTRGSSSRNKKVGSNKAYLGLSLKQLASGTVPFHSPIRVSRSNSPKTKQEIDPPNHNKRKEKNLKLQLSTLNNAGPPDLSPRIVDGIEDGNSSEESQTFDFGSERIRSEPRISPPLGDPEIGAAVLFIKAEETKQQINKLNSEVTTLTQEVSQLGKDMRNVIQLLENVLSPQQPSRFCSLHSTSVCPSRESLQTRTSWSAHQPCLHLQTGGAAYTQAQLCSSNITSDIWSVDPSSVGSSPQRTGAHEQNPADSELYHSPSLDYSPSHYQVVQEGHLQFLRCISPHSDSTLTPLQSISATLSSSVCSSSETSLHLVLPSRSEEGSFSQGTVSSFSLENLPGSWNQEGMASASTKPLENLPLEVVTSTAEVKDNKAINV

Kv12.1 (Elk1) [2] = target: T1, Kv12.1 (Elk1); assay: whole-cell patch clamp, steady-state outward current at […] mV; type: cell-based; conditions: activator, pH 7.4, CHO cells, room temperature

Row | Compound | I100mM TEA/IStart (Kv12.1 (Elk1) [1]) | % potentiation at 3 mM (Kv12.1 (Elk1) [2])
1 | CC[N+](CC)(CC)CC [TEA, tetraethylammonium] | 0.83 ± 0.01 | 
2 | Nc1cccnc1 [3-AP, 3-aminopyridine] |  | ~ 7%
